We go through 34 molecules from PubChem BioAssay AID651650 (Sanford-Burnham Center for Chemical Genomics, 2012).

SMILES strings stand for the structures. Active and inactive are the calls of the source.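 How the source made its calls: active means mean IC50 below 20 µM in each of the two panels, so potent in both; inactive means the rest.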

The target of this assay is Neuropilin-1 (Homo sapiens) (UniProt O14786). Kind of assay: blockers of CendR peptide binding to NRP-1 – biochemical, FP and AlphaScreen panel, dose response (AID 651650). The note with it: NRP-1 b1b2 / RPARPAR peptide binding, FP or AlphaScreen. On the technique in general: Bead proximity is the source of the signal in Alpha formats.
[1] abbreviates: AlphaScreen, run 1, individual panel run IC50.
Setting [2] is: FP, run 1, individual panel run IC50.
The mark [3] stands for this setting: FP, run 2, individual panel run IC50.

Sequence of Neuropilin-1 (Homo sapiens) (O14786 whole entry, looked up): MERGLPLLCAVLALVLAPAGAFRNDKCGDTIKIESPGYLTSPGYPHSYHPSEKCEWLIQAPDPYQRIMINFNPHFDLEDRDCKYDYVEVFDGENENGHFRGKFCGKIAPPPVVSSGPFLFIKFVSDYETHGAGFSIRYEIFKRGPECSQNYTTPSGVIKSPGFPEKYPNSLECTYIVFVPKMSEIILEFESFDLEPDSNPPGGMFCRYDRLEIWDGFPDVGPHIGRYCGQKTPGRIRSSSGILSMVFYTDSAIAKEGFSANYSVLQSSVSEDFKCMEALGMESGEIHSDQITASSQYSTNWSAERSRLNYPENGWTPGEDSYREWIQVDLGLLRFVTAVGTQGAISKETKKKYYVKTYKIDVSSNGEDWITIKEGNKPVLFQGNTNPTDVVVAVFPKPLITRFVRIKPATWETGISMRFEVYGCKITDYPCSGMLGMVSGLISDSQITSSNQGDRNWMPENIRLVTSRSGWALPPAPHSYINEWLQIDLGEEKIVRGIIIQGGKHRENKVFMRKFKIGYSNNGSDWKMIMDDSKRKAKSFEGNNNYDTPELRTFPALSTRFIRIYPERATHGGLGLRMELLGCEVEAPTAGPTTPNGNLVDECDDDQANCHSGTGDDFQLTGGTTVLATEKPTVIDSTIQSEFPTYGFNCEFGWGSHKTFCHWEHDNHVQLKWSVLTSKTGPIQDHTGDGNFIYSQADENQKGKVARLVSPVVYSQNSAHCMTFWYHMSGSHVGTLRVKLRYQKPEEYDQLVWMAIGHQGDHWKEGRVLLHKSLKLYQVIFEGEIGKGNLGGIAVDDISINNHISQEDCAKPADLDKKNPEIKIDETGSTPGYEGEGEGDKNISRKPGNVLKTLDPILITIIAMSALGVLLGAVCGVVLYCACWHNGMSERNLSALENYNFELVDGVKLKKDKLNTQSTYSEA

By IC50 is commonly meant the concentration needed to halve the response being measured. For the molecule `NS(=O)(=O)c1cccnc1Nc1cccc(Cl)c1Cl`, the IC50 is > 100 µM (inactive) (AlphaScreen, mean of runs); greater than 100 µM under setting [1]; > 95 µM (inactive) (FP, mean of runs); greater than 95 µM under setting [2]; greater than 95 µM under setting [3].

For `CCOC(=O)c1ccc(NC(=O)CN2CCc3ccccc3C2)cc1`, the IC50 is > 100 µM (inactive) (AlphaScreen, mean of runs); greater than 100 µM under setting [1]; > 95 µM (inactive) (FP, mean of runs); greater than 95 µM under setting [2]; greater than 95 µM under setting [3].

In the case of `O=C(c1cccc(F)c1)N1CCN(c2ccc([N+](=O)[O-])c(N3CCCCC3)c2)CC1`, the IC50 by setting is: (AlphaScreen, mean of runs) > 100 µM (inactive); under setting [1], greater than 100 µM; (FP, mean of runs) > 95 µM (inactive); under setting [2], greater than 95 µM; under setting [3], greater than 95 µM.

`Cc1c(NP(=O)(C(C)(C)C)C(C)(C)C)c(=O)n(-c2ccccc2)n1C`: the IC50 was > 100 µM (inactive) (AlphaScreen, mean of runs); greater than 100 µM under setting [1]; > 95 µM (inactive) (FP, mean of runs); greater than 95 µM under setting [2]; greater than 95 µM under setting [3].

On to `CC(=NN(Cc1ccccc1)c1ccccc1)c1ccccc1`, for which the IC50 result (AlphaScreen, mean of runs) was “inactive”. The 50% inhibitory concentration (IC50) was 41.3 µM under setting [1]; > 95 µM (inactive) (FP, mean of runs); greater than 95 µM under setting [2]; greater than 95 µM under setting [3].

Take `O=C(CSc1nc2ccc(Cl)cc2[nH]1)NCCc1ccccc1`: the IC50 runs as follows: (AlphaScreen, mean of runs) > 100 µM (inactive); under setting [1], greater than 100 µM; (FP, mean of runs) > 95 µM (inactive); under setting [2], greater than 95 µM; under setting [3], greater than 95 µM.

With `Cn1c(=O)c2[nH]c(NCCCN3CCOCC3)nc2n(C)c1=O`, the IC50 was > 100 µM (inactive) (AlphaScreen, mean of runs); greater than 100 µM under setting [1]; greater than 95 µM under setting [2]; 56.1 µM under setting [3]. Moreover, under “FP, mean of runs”, the IC50 entry was “inactive”.

Take `CC1CCC(NC(=O)CSc2nncn2C)CC1` (stereo not given): the IC50 by setting is: (AlphaScreen, mean of runs) > 100 µM (inactive); under setting [1], greater than 100 µM; (FP, mean of runs) > 95 µM (inactive); under setting [2], greater than 95 µM; under setting [3], greater than 95 µM.

Take `Cc1cccc(NS(=O)(=O)c2cccs2)c1`: the IC50 reads like this: (AlphaScreen, mean of runs) > 100 µM (inactive); under setting [1], greater than 100 µM; (FP, mean of runs) > 95 µM (inactive); under setting [2], greater than 95 µM; under setting [3], greater than 95 µM.

For `C/C(=N\NC(=O)c1cc(O)ccc1O)c1cccc(NC(=O)c2cccc(Cl)c2)c1`, the IC50 runs as follows: (AlphaScreen, mean of runs) > 100 µM (inactive); under setting [1], greater than 100 µM; (FP, mean of runs) > 95 µM (inactive); under setting [2], greater than 95 µM; under setting [3], greater than 95 µM.

Regarding `Cn1c(=O)c2[nH]c(COc3ccccc3)nc2n(C)c1=O`, the IC50 is > 100 µM (inactive) (AlphaScreen, mean of runs); greater than 100 µM under setting [1]; > 95 µM (inactive) (FP, mean of runs); greater than 95 µM under setting [2]; greater than 95 µM under setting [3].

For the molecule `Cc1ccc(C(=O)Nc2ccccc2-c2ccccc2)cc1S(=O)(=O)Nc1ccccc1`, the IC50 is > 100 µM (inactive) (AlphaScreen, mean of runs); greater than 100 µM under setting [1]; > 95 µM (inactive) (FP, mean of runs); greater than 95 µM under setting [2]; greater than 95 µM under setting [3].

With `CCOC(=O)C1(O)CC(C)=NN1C(=O)c1cccc(Br)c1` (stereo not given), the IC50 reads like this: (AlphaScreen, mean of runs) > 100 µM (inactive); under setting [1], greater than 100 µM; (FP, mean of runs) > 95 µM (inactive); under setting [2], greater than 95 µM; under setting [3], greater than 95 µM.

On to `Cc1c(CC(=O)O)c(=O)oc2cc(OCc3ccc(F)cc3Cl)ccc12`, for which the IC50 (AlphaScreen, mean of runs) is > 100 µM (inactive); the half-maximal inhibitory concentration (IC50) under setting [1] was greater than 100 µM; the IC50 (FP, mean of runs) was > 95 µM (inactive); the IC50 under setting [2] was greater than 95 µM; the 50% inhibitory concentration (IC50) under setting [3] is greater than 95 µM.

As for `C=C1CCN([C@@H](CC(C)C)C(=O)NCc2ccccc2)S(=O)(=O)c2ccccc21`, the IC50 is > 100 µM (inactive) (AlphaScreen, mean of runs); greater than 100 µM under setting [1]; > 95 µM (inactive) (FP, mean of runs); greater than 95 µM under setting [2]; greater than 95 µM under setting [3].

Turning to `C=C(C)C1CC=C(C)/C(=N\NC(=O)CNc2ccccc2OC)C1` (stereo not given), the IC50 is, setting by setting: (AlphaScreen, mean of runs) > 100 µM (inactive); under setting [1], greater than 100 µM; (FP, mean of runs) > 95 µM (inactive); under setting [2], greater than 95 µM; under setting [3], greater than 95 µM.

Consider `OCCCc1n[nH]c(=S)n1-c1ccccc1`, for which the IC50 is > 100 µM (inactive) (AlphaScreen, mean of runs); greater than 100 µM under setting [1]; > 95 µM (inactive) (FP, mean of runs); greater than 95 µM under setting [2]; greater than 95 µM under setting [3].

Turning to `O=C(O)c1cc(NCc2ccc(F)cc2)ccc1N1CCOCC1`, the IC50 is, setting by setting: (AlphaScreen, mean of runs) > 100 µM (inactive); under setting [1], greater than 100 µM; (FP, mean of runs) > 95 µM (inactive); under setting [2], greater than 95 µM; under setting [3], greater than 95 µM.

Turning to `CCN1C(=O)C(=O)c2cc(C)ccc21`, the IC50 reads like this: (AlphaScreen, mean of runs) > 100 µM (inactive); under setting [1], greater than 100 µM; (FP, mean of runs) > 95 µM (inactive); under setting [2], greater than 95 µM; under setting [3], greater than 95 µM.

On to `Cc1ccccc1OCC1Cc2c(nc(N)c(C#N)c2N)O1` (stereo not given), for which the IC50 by setting is: (AlphaScreen, mean of runs) > 100 µM (inactive); under setting [1], greater than 100 µM; (FP, mean of runs) > 95 µM (inactive); under setting [2], greater than 95 µM; under setting [3], greater than 95 µM.

In the case of `OCCNc1ncnc2ccc(Br)cc12`, under “AlphaScreen, mean of runs”, the IC50 result is “inactive”. The IC50 runs as follows: under setting [1], 45.2 µM; (FP, mean of runs) > 95 µM (inactive); under setting [2], greater than 95 µM; under setting [3], greater than 95 µM.

With `CCCCOc1ccc(S(=O)(=O)N2CCN(C)CC2)cc1`, the IC50 entry (AlphaScreen, mean of runs) is “inactive”. Besides, the IC50 runs as follows: under setting [1], 76.4 µM; (FP, mean of runs) > 95 µM (inactive); under setting [2], greater than 95 µM; under setting [3], greater than 95 µM.

As to `N=C1C(=O)OCC1c1cc(Cl)ccc1NC(=O)Nc1ccccc1` (stereo not given), the IC50 entry (AlphaScreen, mean of runs) was “inactive”. Moreover, the IC50 reads like this: under setting [1], 90.5 µM; (FP, mean of runs) > 95 µM (inactive); under setting [2], greater than 95 µM; under setting [3], greater than 95 µM.

In the case of `OCC1OC(n2cnc3c(/C=C(\O)c4ccccc4)ncnc32)C(O)C1O` (stereo not given), the IC50 is, setting by setting: (AlphaScreen, mean of runs) > 100 µM (inactive); under setting [1], greater than 100 µM; (FP, mean of runs) > 95 µM (inactive); under setting [2], greater than 95 µM; under setting [3], greater than 95 µM.

`Cc1[nH]n(-c2ccccc2)c(=S)c1C=Nc1cccc([N+](=O)[O-])c1`: the IC50 (AlphaScreen, mean of runs) was > 100 µM (inactive); the IC50 under setting [1] was greater than 100 µM; the IC50 (FP, mean of runs) was > 95 µM (inactive); the half-inhibitory concentration (IC50) under setting [2] was greater than 95 µM; the 50% inhibitory concentration (IC50) under setting [3] is greater than 95 µM.

Regarding `CC(Nc1nc(-c2ccc(F)cc2)cs1)c1nc2cc(C(F)(F)F)ccc2n1CCOCCO` (stereo not given), the IC50 is > 100 µM (inactive) (AlphaScreen, mean of runs); greater than 100 µM under setting [1]; > 95 µM (inactive) (FP, mean of runs); greater than 95 µM under setting [2]; greater than 95 µM under setting [3].

For the molecule `O=C(Nc1cccc(C(F)(F)F)c1)C1Cc2c(-c3cccc(F)c3)ccnc2O1` (stereo not given), the IC50 is > 100 µM (inactive) (AlphaScreen, mean of runs); greater than 100 µM under setting [1]; > 95 µM (inactive) (FP, mean of runs); greater than 95 µM under setting [2]; greater than 95 µM under setting [3].

Regarding `CN(Cc1cnn(C)c1)C(=O)c1cc2ccccc2oc1=O`, the IC50 reads like this: (AlphaScreen, mean of runs) > 100 µM (inactive); under setting [1], greater than 100 µM; (FP, mean of runs) > 95 µM (inactive); under setting [2], greater than 95 µM; under setting [3], greater than 95 µM.

In the case of `O=C(CSc1nnc(CNC(=O)C23CC4CC(CC(C4)C2)C3)n1-c1ccccc1)Nc1ccc(F)cc1`, the IC50 (AlphaScreen, mean of runs) was > 100 µM (inactive); the IC50 under setting [1] was greater than 100 µM; the IC50 (FP, mean of runs) was > 95 µM (inactive); the half-inhibitory concentration (IC50) under setting [2] is greater than 95 µM; the IC50 under setting [3] was greater than 95 µM.

For the molecule `CCOC(=O)[C@@H]1[C@H]2COc3ccccc3[C@@H]2N2C(=O)N(c3ccc(Cl)cc3)C(=O)[C@]12C`, the half-inhibitory concentration (IC50) runs as follows: (AlphaScreen, mean of runs) 7.51 µM; under setting [1], 7.51 µM; (FP, mean of runs) > 95 µM (inactive); under setting [2], greater than 95 µM; under setting [3], greater than 95 µM.

For the molecule `C#CCCOC(=O)N1C2=NC(C(=O)OC)=C(C(=O)OC)[C@@H]3N(C)c4ccccc4[C@]23C[C@H]1CO`, the IC50 reads like this: (AlphaScreen, mean of runs) 9.53 µM; under setting [1], 9.53 µM; (FP, mean of runs) > 95 µM (inactive); under setting [2], greater than 95 µM; under setting [3], greater than 95 µM.

Take `CC(C)C(N)c1csc(NC(=O)Nc2cccc(C(F)(F)F)c2)n1` (stereo not given): the IC50 is, setting by setting: (AlphaScreen, mean of runs) > 100 µM (inactive); under setting [1], greater than 100 µM; (FP, mean of runs) > 95 µM (inactive); under setting [2], greater than 95 µM; under setting [3], greater than 95 µM.

In the case of `CC(=O)c1cccc(S(=O)(=O)N2CCC(C(=O)O)(c3ccccc3)CC2)c1`, the IC50 is > 100 µM (inactive) (AlphaScreen, mean of runs); greater than 100 µM under setting [1]; > 95 µM (inactive) (FP, mean of runs); greater than 95 µM under setting [2]; greater than 95 µM under setting [3].

For `COC(=O)C1=C(c2ccc(F)cc2OCc2ccccc2)C[C@@H]2CC[C@H]1N2C(=O)NCCNC(C)=O`, the IC50 by setting is: (AlphaScreen, mean of runs) 9.37 µM; under setting [1], 9.37 µM; (FP, mean of runs) > 95 µM (inactive); under setting [2], greater than 95 µM; under setting [3], greater than 95 µM.
